{
  "source": "patent US9944647B2",
  "about": "(Incyte Corporation, priority 2015, dated 2018)",
  "data": [
    {"target": "LSD-1 enzyme (Homo sapiens (Human), UniProt O60341)", "assay": "LANCE LSD1/KDM1A demethylase assay (LSD1 histone demethylase biochemical assay)", "details": "1 nM LSD-1 enzyme, 1 hour preincubation at 25° C., Biotin-labeled Histone H3 peptide substrate", "units": {"IC50": "nM"}, "values": [
      {"compound": "CN1CCC[C@@H](COc2nc(-c3ccc(C#N)cc3)c(-c3ccc(CN4CCOCC4)c(F)c3)c3nccn23)C1", "note": "[Example 80, 4-(8-[3-fluoro-4-(morpholin-4-ylmethyl)phenyl]-5-{[(3R)-1-methylpiperidin-3-yl]methoxy}imidazo[1,2-c]pyrimidin-7-yl)benzonitrile]", "IC50": "≤ 50"},
      {"compound": "COc1ncc(-c2c(-c3ccc(C#N)cc3)nc(OC[C@@H]3CCCN(CCC#N)C3)n3ccnc23)cc1F", "note": "[Example 81, 4-[5-{[(3R)-1-(2-cyanoethyl)piperidin-3-yl]methoxy}-8-(5-fluoro-6-methoxypyridin-3-yl)imidazo[1,2-c]pyrimidin-7-yl]benzonitrile]", "IC50": "50 to 500"},
      {"compound": "CN(C)c1ncc(-c2c(-c3ccc(C#N)cc3)nc(N3CCC(N(C)C)CC3)n3ccnc23)cc1F", "note": "[Example 82, 4-{8-[6-(dimethylamino)-5-fluoropyridin-3-yl]-5-[4-(dimethylamino)piperidin-1-yl]imidazo[1,2-c]pyrimidin-7-yl}benzonitrile]", "IC50": "≤ 50"},
      {"compound": "Cn1c(=O)oc2cc(-c3c(-c4ccc(C#N)cc4)nc(OC[C@@H]4CCCN(CCC#N)C4)n4ccnc34)ccc21", "note": "[Example 83, 4-[5-{[(3R)-1-(2-cyanoethyl)piperidin-3-yl]methoxy}-8-(3-methyl-2-oxo-2,3-dihydro-1,3-benzoxazol-6-yl)imidazo[1,2-c]pyrimidin-7-yl]benzonitrile]", "IC50": "≤ 50"},
      {"compound": "CN1CCC[C@@H](COc2nc(-c3ccc(C#N)cc3)c(-c3ccc(CN(C)S(C)(=O)=O)c(F)c3)c3nccn23)C1", "note": "[Example 84, N-[4-(7-(4-cyanophenyl)-5-{[(3R)-1-methylpiperidin-3-yl]methoxy}imidazo[1,2-c]pyrimidin-8-yl)-2-fluorobenzyl]-N-methylmethanesulfonamide]", "IC50": "50 to 500"},
      {"compound": "CN1CCC[C@@H](COc2nc(-c3ccc(C#N)cc3)c(-c3ccc(CN(C)C(=O)N(C)C)c(F)c3)c3nccn23)C1", "note": "[Example 85, N-[4-(7-(4-cyanophenyl)-5-{[(3R)-1-methylpiperidin-3-yl]methoxy}imidazo[1,2-c]pyrimidin-8-yl)-2-fluorobenzyl]-N,N′,N′-trimethylurea]", "IC50": "≤ 50"},
      {"compound": "CN1CCC[C@@H](COc2nc(-c3ccc(C#N)cc3)c(-c3ccc(CN(C)C(=O)N(C)C)cc3)c3nccn23)C1", "note": "[Example 86, N-[4-(7-(4-cyanophenyl)-5-{[(3R)-1-methylpiperidin-3-y1]methoxy}imidazo[1,2-c]pyrimidin-8-yl)benzyl]-N,N′,N′-trimethylurea]", "IC50": "≤ 50"},
      {"compound": "COC(=O)N(C)Cc1ccc(-c2c(-c3ccc(C#N)cc3)nc(OC[C@@H]3CCCN(C)C3)n3ccnc23)cc1", "note": "[Example 87, methyl [4-(7-(4-cyanophenyl)-5-{[(3R)-1-methylpiperidin-3-yl]methoxy}imidazo[1,2-c]pyrimidin-8-yl)benzyl]methylcarbamate]", "IC50": "≤ 50"},
      {"compound": "COc1ncc(-c2c(-c3ccc(C#N)cc3)nc(OC[C@@H]3CCCN(C)C3)n3ccnc23)cc1Cl", "note": "[Example 88, 4-(8-(5-chloro-6-methoxypyridin-3-yl)-5-{[(3R)-1-methylpiperidin-3-yl]methoxy}imidazo[1,2-c]pyrimidin-7-yl)benzonitrile]", "IC50": "≤ 50"},
      {"compound": "Cc1cc(-c2c(-c3ccc(C#N)cc3)nc(N3CCC(N(C)C)CC3)n3ccnc23)cc(F)c1CO", "note": "[Example 89, 4-{5-[4-(dimethylamino)piperidin-1-yl]-8-[3-fluoro-4-(hydroxymethyl)-5-methylphenyl]imidazo[1,2-c]pyrimidin-7-yl}benzonitrile]", "IC50": "≤ 50"},
      {"compound": "CN(C)C1CCN(c2nc(-c3ccc(C#N)cc3)c(-c3cc(F)c(CO)c(F)c3)c3nccn23)CC1", "note": "[Example 90, 4-{8-[3,5-difluoro-4-(hydroxymethyl)phenyl]-5-[4-(dimethylamino)piperidin-1-yl]imidazo[1,2-c]pyrimidin-7-yl}benzonitrile]", "IC50": "≤ 50"},
      {"compound": "Cc1cc(-c2c(-c3ccc(C#N)cc3)nc(N3CCC(N(C)C)CC3)n3ccnc23)ccc1CO", "note": "[Example 91, 4-{5-[4-(dimethylamino)piperidin-1-yl]-8-[4-(hydroxymethyl)-3-methylphenyl]imidazo[1,2-c]pyrimidin-7-yl}benzonitrile]", "IC50": "≤ 50"},
      {"compound": "Cc1ncc(-c2c(-c3ccc(C#N)cc3)nc(OC[C@@H]3CCCN(C)C3)n3ccnc23)cc1Cl", "note": "[Example 92, 4-(8-(5-chloro-6-methylpyridin-3-yl)-5-{[(3R)-1-methylpiperidin-3-yl]methoxy}imidazo[1,2-c]pyrimidin-7-yl)benzonitrile]", "IC50": "≤ 50"},
      {"compound": "Cc1ccc(-c2c(-c3ccc(C#N)cc3)nc(OC[C@@H]3CCCN(C)C3)n3ccnc23)cc1C(C)O", "note": "(stereo partly drawn) [Example 93, 4-(8-[3-(1-hydroxyethyl)-4-methylphenyl]-5-{[(3R)-1-methylpiperidin-3-yl]methoxy}imidazo[1,2-c]pyrimidin-7-yl)benzonitrile]", "IC50": "≤ 50"},
      {"compound": "COCc1ccc(-c2c(-c3ccc(C#N)cc3)nc(OC[C@@H]3CCCN(C)C3)n3ccnc23)cc1", "note": "[Example 94, 4-(8-[4-(methoxymethyl)phenyl]-5-{[(3R)-1-methylpiperidin-3-yl]methoxy}imidazo[1,2-c]pyrimidin-7-yl)benzonitrile]", "IC50": "≤ 50"},
      {"compound": "CN1CCC[C@@H](COc2nc(-c3ccc(C#N)cc3)c(-c3ccc(CN4CCOCC4)cc3F)c3nccn23)C1", "note": "[Example 95, 4-(8-[2-fluoro-4-(morpholin-4-ylmethyl)phenyl]-5-{[(3R)-1-methylpiperidin-3-yl]methoxy}imidazo[1,2-c]pyrimidin-7-yl)benzonitrile]", "IC50": "≤ 50"},
      {"compound": "Cc1ccc(-c2c(-c3ccc(C#N)cc3)nc(OC[C@@H]3CCCN(C)C3)n3ccnc23)cc1C#N", "note": "[Example 96, 5-(7-(4-cyanophenyl)-5-{[(3R)-1-methylpiperidin-3-yl]methoxy}imidazo[1,2-c]pyrimidin-8-yl)-2-methylbenzonitrile]", "IC50": "≤ 50"},
      {"compound": "CN(C)C(=O)N(C)Cc1ccc(-c2c(-c3ccc(C#N)cc3)nc(N3CCC(N(C)C)CC3)n3ccnc23)cc1F", "note": "[Example 97, N-(4-{7-(4-cyanophenyl)-5-[4-(dimethylamino)piperidin-1-yl]imidazo[1,2-c]pyrimidin-8-yl}-2-fluorobenzyl)-N,N′,N′-trimethylurea]", "IC50": "≤ 50"},
      {"compound": "CN(C)C1CCN(c2nc(-c3ccc(C#N)cc3)c(-c3ccc(CN4CCOCC4)c(F)c3)c3nccn23)CC1", "note": "[Example 98, 4-{5-[4-(dimethylamino)piperidin-1-yl]-8-[3-fluoro-4-(morpholin-4-ylmethyl)phenyl]imidazo[1,2-c]pyrimidin-7-yl}benzonitrile]", "IC50": "≤ 50"},
      {"compound": "CCN1CCC[C@@H](COc2nc(-c3ccc(C#N)cc3)c(-c3ccc(C)c(CO)c3)c3nccn23)C1", "note": "[Example 99, 4-{5-{[(3R)-1-ethylpiperidin-3-yl]methoxy}-8-[3-(hydroxymethyl)-4-methylphenyl]imidazo[1,2-c]pyrimidin-7-yl}benzonitrile]", "IC50": "≤ 50"},
      {"compound": "Cc1ccc(-c2c(-c3ccc(C#N)cc3)nc(N3CC[C@@H](N(C)C)C3)n3ccnc23)cc1CO", "note": "[Example 100, 4-{5-[(3R)-3-(dimethylamino)pyrrolidin-1-yl]-8-[3-(hydroxymethyl)-4-methylphenyl]imidazo[1,2-c]pyrimidin-7-yl}benzonitrile]", "IC50": "≤ 50"},
      {"compound": "CN1CCC[C@@H](COc2nc(-c3ccc(C#N)cc3)c(-c3ccc(CO)c(Cl)c3)c3nccn23)C1", "note": "[Example 101, 4-(8-[3-chloro-4-(hydroxymethyl)phenyl]-5-{[(3R)-1-methylpiperidin-3-yl]methoxy}imidazo[1,2-c]pyrimidin-7-yl)benzonitrile]", "IC50": "≤ 50"},
      {"compound": "Cc1ccc(-c2c(-c3ccc(C#N)cc3)nc(N3CCC(N(C)C)CC3)n3ccnc23)cc1CO", "note": "[Example 102, 4-{5-[4-(dimethylamino)piperidin-1-yl]-8-[3-(hydroxymethyl)-4-methylphenyl]imidazo[1,2-c]pyrimidin-7-yl}benzonitrile]", "IC50": "≤ 50"},
      {"compound": "Cc1ncc(-c2c(-c3ccc(C#N)cc3)nc(N3CCC(N(C)C)CC3)n3ccnc23)cc1Cl", "note": "[Example 103, 4-{8-(5-chloro-6-methylpyridin-3-yl)-5-[4-(dimethylamino)piperidin-1-yl]imidazo[1,2-c]pyrimidin-7-yl}benzonitrile]", "IC50": "≤ 50"},
      {"compound": "COc1ncc(-c2c(-c3ccc(C#N)cc3)nc(N3CCC(N(C)C)CC3)n3ccnc23)cc1Cl", "note": "[Example 104, 4-{8-(5-chloro-6-methoxypyridin-3-yl)-5-[4-(dimethylamino)piperidin-1-yl]imidazo[1,2-c]pyrimidin-7-yl}benzonitrile]", "IC50": "≤ 50"},
      {"compound": "COc1ncc(-c2c(-c3ccc(C#N)cc3)nc(N3CCC(N(C)C)CC3)n3ccnc23)cc1C#N", "note": "[Example 105, 5-{7-(4-cyanophenyl)-5-[4-(dimethylamino)piperidin-1-yl]imidazo[1,2-c]pyrimidin-8-yl}-2-methoxynicotinonitrile]", "IC50": "≤ 50"},
      {"compound": "CCc1ccc(-c2c(-c3ccc(C#N)cc3)nc(OC[C@@H]3CCCN(C)C3)n3ccnc23)cn1", "note": "[Example 107, 4-(8-(6-ethylpyridin-3-yl)-5-{[(3R)-1-methylpiperidin-3-yl]methoxy}imidazo[1,2-c]pyrimidin-7-yl)benzonitrile]", "IC50": "50 to 500"},
      {"compound": "CC(C)c1ccc(-c2c(-c3ccc(C#N)cc3)nc(OC[C@@H]3CCCN(C)C3)n3ccnc23)cn1", "note": "[Example 108, 4-(8-(6-isopropylpyridin-3-yl)-5-{[(3R)-1-methylpiperidin-3-yl]methoxy}imidazo[1,2-c]pyrimidin-7-yl)benzonitrile]", "IC50": "50 to 500"},
      {"compound": "CCN1CCC[C@@H](COc2nc(-c3ccc(C#N)cc3)c(-c3cc(C)c(CO)c(F)c3)c3nccn23)C1", "note": "[Example 109, 4-{5-{[(3R)-1-ethylpiperidin-3-yl]methoxy}-8-[3-fluoro-4-(hydroxymethyl)-5-methylphenyl]imidazo[1,2-c]pyrimidin-7-yl}benzonitrile]", "IC50": "≤ 50"},
      {"compound": "Cc1cc(-c2c(-c3ccc(C#N)cc3)nc(N3CC[C@@H](N(C)C)C3)n3ccnc23)cc(F)c1CO", "note": "[Example 110, 4-{5-[(3R)-3-(dimethylamino)pyrrolidin-1-yl]-8-[3-fluoro-4-(hydroxymethyl)-5-methylphenyl]imidazo[1,2-c]pyrimidin-7-yl}benzonitrile]", "IC50": "≤ 50"},
      {"compound": "Cc1ccc(-c2c(-c3ccc(C#N)cc3)nc(N3CCC(N(C)C)CC3)n3ccnc23)c(CO)c1", "note": "[Example 111, 4-{5-[4-(dimethylamino)piperidin-1-yl]-8-[2-(hydroxymethyl)-4-methylphenyl]imidazo[1,2-c]pyrimidin-7-yl}benzonitrile]", "IC50": "≤ 50"}
    ]}
  ]
}
